Reference: ChEMBL document CHEMBL6092192 (J Med Chem, 2024)
Active and inactive are the calls of the source. The rule behind the calls is not given here.

Columns and labels:
[1] = Toxicity in BALB/c nude mouse xenografted with […] CT26/TAXOL cells assessed as effect on spleen at 100 mg/kg/day, IG in presence of paclitaxel/anti-PD-1 measured after 14 days by H and E staining based analysis; type: organism-based; details: in vivo, po, 336 h, time 14 day
HEK293 [2] = test: Cytotoxicity against HEK293 cells transfected with pcDNA3.1 assessed as survival rate at 2 uM measured after 72 hrs by MTT assay relative to control; type: functional; details: Homo sapiens, read-out: Survival
Cytochrome P450 3A4 = Cytochrome P450 3A4 (Homo sapiens, UniProt P08684); test: Activation of recombinant CYP3A4 in human liver microsomes at 30 uM measured upto 40 mins in presence of NADPH generating system by fluorescence based analysis; type: ADME, Microsome
Sequence of Cytochrome P450 3A4 (P08684 whole entry): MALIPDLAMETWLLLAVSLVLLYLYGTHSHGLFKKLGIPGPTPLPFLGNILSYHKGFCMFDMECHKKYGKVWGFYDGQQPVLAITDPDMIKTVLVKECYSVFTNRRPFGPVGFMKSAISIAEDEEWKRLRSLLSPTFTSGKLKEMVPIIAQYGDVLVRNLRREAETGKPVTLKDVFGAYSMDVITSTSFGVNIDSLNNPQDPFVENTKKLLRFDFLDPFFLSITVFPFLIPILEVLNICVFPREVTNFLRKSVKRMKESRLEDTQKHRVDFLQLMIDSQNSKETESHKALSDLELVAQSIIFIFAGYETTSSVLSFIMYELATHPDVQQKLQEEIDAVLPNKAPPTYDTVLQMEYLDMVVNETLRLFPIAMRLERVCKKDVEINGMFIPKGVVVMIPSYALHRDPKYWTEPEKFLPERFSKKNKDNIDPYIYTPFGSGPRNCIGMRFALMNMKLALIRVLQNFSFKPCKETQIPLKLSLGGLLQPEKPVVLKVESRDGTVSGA

HEK293 [3] = test: Cytotoxicity against HEK293 cells harbouring ABCB1 assessed as survival rate at 5 uM measured after 72 hrs by MTT assay relative to control; type: functional; details: Homo sapiens, read-out: Survival
[4] = Toxicity in Sprague-Dawley rat assessed as change in body weight at 250 to 1000 mg/kg, po measured for 14 days administered as single dose; type: organism-based; details: in vivo, 336 h, dose 250-1000 mg/kg, time 14 day
SW620/AD300 [5] = test: Antitumor activity against human SW620/AD300 cells xenografted in male BALB/c nude mouse model assessed as nuclear pyknosis at 100 mg/kg/day, IG in presence of paclitaxel by H and E staining based analysis; type: functional, organism-based
[6] = AUC (0 to infinity) in 12 hrs fasted Sprague-Dawley rat at 10 mg/kg, po measured upto 720 mins by HPLC-MS/MS analysis; type: ADME, organism-based; details: in vivo
[7] = AUC (0 to t) in 12 hrs fasted Sprague-Dawley rat at 1 mg/kg, iv measured upto 720 mins by HPLC-MS/MS analysis; type: ADME, organism-based; details: in vivo
[8] = Cmax in 12 hrs fasted Sprague-Dawley rat at 1 mg/kg, iv measured upto 720 mins by HPLC-MS/MS analysis; type: ADME, organism-based; details: in vivo
[9] = Toxicity in BALB/c nude mouse xenografted with […] CT26/TAXOL cells assessed as change in body weight at 100 mg/kg/day, IG measured upto 14 days; type: organism-based; details: in vivo, po, 336 h, time < 14 day
[10] = Toxicity in BALB/c nude mouse xenografted with […] CT26/TAXOL cells assessed as effect on heart at 100 mg/kg/day, IG in presence of paclitaxel measured after 14 days by H and E staining based analysis; type: organism-based; details: in vivo, po, 336 h, time 14 day
SW-620 = test: Cytotoxicity against human SW620 cells assessed as survival rate at 2 uM measured after 72 hrs by MTT assay relative to control; type: functional; details: read-out: Survival
[11] = biological target: T1, ATP-dependent translocase ABCB1 (Homo sapiens, UniProt P08183); test: Activation of ABCB1 ATPase activity (unknown origin) infected in insect cells at 18.5 uM incubated for 20 mins in presence of Mg-ATP by spectrophotometric analysis; type: cell-based; details: insect cell
T1 sequence (P08183 whole entry): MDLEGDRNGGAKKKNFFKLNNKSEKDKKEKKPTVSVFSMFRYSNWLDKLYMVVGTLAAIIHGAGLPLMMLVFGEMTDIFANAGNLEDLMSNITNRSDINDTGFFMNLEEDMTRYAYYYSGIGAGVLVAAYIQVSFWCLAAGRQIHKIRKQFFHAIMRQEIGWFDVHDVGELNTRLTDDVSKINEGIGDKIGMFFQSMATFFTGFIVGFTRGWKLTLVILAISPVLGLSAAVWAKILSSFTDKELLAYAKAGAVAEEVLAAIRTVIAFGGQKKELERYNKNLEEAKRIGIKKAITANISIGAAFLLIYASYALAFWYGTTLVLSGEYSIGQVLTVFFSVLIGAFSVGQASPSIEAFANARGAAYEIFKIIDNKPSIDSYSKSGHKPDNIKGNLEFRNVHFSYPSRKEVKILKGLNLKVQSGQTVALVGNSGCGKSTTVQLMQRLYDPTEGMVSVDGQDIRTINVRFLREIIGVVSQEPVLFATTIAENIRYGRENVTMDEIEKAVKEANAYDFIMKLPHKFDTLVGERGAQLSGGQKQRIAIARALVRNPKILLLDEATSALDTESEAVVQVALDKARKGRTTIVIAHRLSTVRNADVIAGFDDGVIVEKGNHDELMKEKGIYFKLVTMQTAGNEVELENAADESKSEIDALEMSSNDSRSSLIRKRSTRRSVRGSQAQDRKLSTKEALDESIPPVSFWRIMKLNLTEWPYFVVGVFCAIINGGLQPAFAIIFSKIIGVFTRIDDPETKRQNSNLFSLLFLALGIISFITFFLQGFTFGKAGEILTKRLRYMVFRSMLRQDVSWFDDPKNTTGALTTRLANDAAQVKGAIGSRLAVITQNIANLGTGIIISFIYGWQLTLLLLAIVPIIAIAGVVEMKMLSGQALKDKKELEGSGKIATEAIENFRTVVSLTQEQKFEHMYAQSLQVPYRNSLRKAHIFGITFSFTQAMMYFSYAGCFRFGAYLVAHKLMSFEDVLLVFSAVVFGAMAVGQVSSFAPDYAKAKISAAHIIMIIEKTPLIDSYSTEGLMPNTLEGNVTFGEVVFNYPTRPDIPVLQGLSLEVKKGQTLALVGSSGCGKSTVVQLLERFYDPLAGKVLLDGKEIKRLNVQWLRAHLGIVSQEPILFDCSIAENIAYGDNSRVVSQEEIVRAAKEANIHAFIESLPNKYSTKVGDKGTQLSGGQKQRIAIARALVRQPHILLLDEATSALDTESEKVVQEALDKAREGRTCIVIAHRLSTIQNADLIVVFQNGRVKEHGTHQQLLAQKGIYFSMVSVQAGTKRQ

hERG (KCNH2) = hERG (KCNH2) (Homo sapiens, UniProt Q12809); test: Inhibition of human ERG expressed in CHO cells at 40 uM by QPatch assay relative to control; type: toxicity, cell-based; details: CHO cells expressing human ERG
Sequence of hERG (KCNH2) (Q12809 whole entry): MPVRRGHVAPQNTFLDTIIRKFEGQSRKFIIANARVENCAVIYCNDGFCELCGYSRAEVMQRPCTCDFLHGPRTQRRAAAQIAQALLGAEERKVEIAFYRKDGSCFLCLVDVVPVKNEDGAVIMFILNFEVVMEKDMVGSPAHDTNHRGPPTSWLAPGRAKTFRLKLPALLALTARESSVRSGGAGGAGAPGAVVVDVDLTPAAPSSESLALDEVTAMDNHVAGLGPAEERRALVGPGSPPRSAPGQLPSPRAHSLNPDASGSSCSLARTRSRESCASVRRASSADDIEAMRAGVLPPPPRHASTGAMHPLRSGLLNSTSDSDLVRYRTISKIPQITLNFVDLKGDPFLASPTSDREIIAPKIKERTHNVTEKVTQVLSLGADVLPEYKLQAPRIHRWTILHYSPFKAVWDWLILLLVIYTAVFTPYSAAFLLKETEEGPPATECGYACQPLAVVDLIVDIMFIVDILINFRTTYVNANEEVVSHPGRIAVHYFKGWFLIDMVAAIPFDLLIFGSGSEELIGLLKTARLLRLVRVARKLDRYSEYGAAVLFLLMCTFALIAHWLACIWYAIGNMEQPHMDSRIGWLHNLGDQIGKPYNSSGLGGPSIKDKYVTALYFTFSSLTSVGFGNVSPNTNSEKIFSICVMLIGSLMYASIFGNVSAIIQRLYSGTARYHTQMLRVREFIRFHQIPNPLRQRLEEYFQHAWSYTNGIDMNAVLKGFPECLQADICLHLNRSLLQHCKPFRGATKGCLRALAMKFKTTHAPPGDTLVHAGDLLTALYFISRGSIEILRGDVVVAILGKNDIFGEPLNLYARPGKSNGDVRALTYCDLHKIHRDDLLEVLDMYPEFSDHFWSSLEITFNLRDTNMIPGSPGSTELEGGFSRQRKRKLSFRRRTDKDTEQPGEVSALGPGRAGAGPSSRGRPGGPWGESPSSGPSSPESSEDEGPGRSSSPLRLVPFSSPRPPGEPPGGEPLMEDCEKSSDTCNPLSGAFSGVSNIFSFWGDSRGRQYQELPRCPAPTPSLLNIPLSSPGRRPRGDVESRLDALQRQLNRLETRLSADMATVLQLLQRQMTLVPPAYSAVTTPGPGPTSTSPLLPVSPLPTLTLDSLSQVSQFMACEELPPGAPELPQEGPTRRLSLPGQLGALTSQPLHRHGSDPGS

KB 3-1 [12] = test: Cytotoxicity against human KB 3-1 cells assessed as survival rate at 5 uM measured after 72 hrs by MTT assay relative to control; type: functional; details: read-out: Survival
KB-C2 = test: Reversal of paclitaxel resistance in human KB-C2 cells assessed as reversal fold by measuring ratio of paclitaxel IC50 to paclitaxel IC50 in presence of test compound at 2 uM incubated for 72 hrs by MTT assay; type: functional
SW620/AD300 [13] = test: Reversal of paclitaxel resistance in human SW620/AD300 cells assessed as reversal fold by measuring ratio of paclitaxel IC50 to paclitaxel IC50 in presence of test compound at 2 uM incubated for 72 hrs by MTT assay; type: functional
HEK293 [14] = test: Cytotoxicity against HEK293 cells transfected with pcDNA3.1 assessed as survival rate at 5 uM measured after 72 hrs by MTT assay relative to control; type: functional; details: Homo sapiens, read-out: Survival
[15] = Toxicity in BALB/c nude mouse xenografted with […] CT26/TAXOL cells assessed as effect on kidney at 100 mg/kg/day, IG in presence of paclitaxel measured after 14 days by H and E staining based analysis; type: organism-based; details: in vivo, po, 336 h, time 14 day
[16] = Toxicity in BALB/c nude mouse xenografted with […] CT26/TAXOL cells assessed as mortality at 100 mg/kg/day, IG measured upto 14 days in presence of paclitaxel; type: organism-based; details: in vivo, po, 336 h, time < 14 day
[17] = Cmax in 12 hrs fasted Sprague-Dawley rat at 10 mg/kg, po measured upto 720 mins by HPLC-MS/MS analysis; type: ADME, organism-based; details: in vivo
KB 3-1 [18] = test: Cytotoxicity against human KB 3-1 cells assessed as survival rate at 2 uM measured after 72 hrs by MTT assay relative to control; type: functional; details: read-out: Survival
[19] = biological target: T1, ATP-dependent translocase ABCB1; test: Inhibition of ABCB1 in human SW620/AD300 cells assessed as increase in intracellular paclitaxel incubated for 4 hrs by liquid scintillation analysis; type: cell-based; details: sw620/ad300, 4 h, at 2 to 4 µM, dose 2-4 µM
SW620/AD300 [20] = test: Antitumor activity against human SW620/AD300 cells xenografted in male BALB/c nude mouse model assessed as reduction in tumor weight at 100 mg/kg/day, IG measured after 21 days in presence of paclitaxel; type: functional, organism-based; details: time 21.0 day
[21] = MRT (0 to infinity) in 12 hrs fasted Sprague-Dawley rat at 10 mg/kg, po measured upto 720 mins by HPLC-MS/MS analysis; type: ADME, organism-based; details: in vivo
[22] = Reversal of paclitaxel resistance in HEK293 cells harbouring ABCB1 assessed as reversal fold by measuring ratio of paclitaxel IC50 to paclitaxel IC50 in presence of test compound at 2 uM incubated for 72 hrs by MTT assay; type: functional, Homo sapiens
CT26/TAXOL [23] = test: Antitumor T-cell immune response in […] cells xenografted in BALB/c nude mouse model assessed as reduction in tumor weight at 100 mg/kg/day, IG in presence of anti-PD-1/paclitaxel measured after 14 days; type: functional, organism-based; details: time 14.0 day
[24] = Oral bioavailability in 12 hrs fasted Sprague-Dawley rat at 10 mg/kg measured upto 720 mins by HPLC-MS/MS analysis; type: ADME, organism-based; details: in vivo
[25] = Toxicity in BALB/c nude mouse assessed as mortality at 100 mg/kg/day, IG measured after 21 days in presence of paclitaxel; type: organism-based; details: in vivo, po, 504 h, time 21 day
SW620/AD300 [26] = test: Cytotoxicity against multidrug resistant human SW620/AD300 cells assessed as survival rate at 2 uM measured after 72 hrs by MTT assay relative to control; type: functional; details: read-out: Survival
[27] = Toxicity in BALB/c nude mouse xenografted with […] CT26/TAXOL cells assessed as effect on heart at 100 mg/kg/day, IG in presence of paclitaxel/anti-PD-1 measured after 14 days by H and E staining based analysis; type: organism-based; details: in vivo, po, 336 h, time 14 day
CT26/TAXOL [28] = test: Antitumor T-cell immune response in […] cells xenografted in BALB/c nude mouse model assessed as reduction in tumor growth at 100 mg/kg/day, IG measured after 14 days; type: functional, organism-based; details: time 14.0 day

## O=c1c2c([nH]c3nc(SCc4nc5ccccc5s4)nn13)CCC2
[1]
  Activity: Non-toxic
HEK293 [2]
  viability at 2 µM: 97.8%
Cytochrome P450 3A4
  Activity: Active
HEK293 [3]
  viability at 5 µM: 91.2%
[4]
  Activity: Non-toxic
SW620/AD300 [5]
  Activity: Active
[6]
  AUC(0-inf): 5840 ng·h/mL
[7]
  AUC(0-t) at 12 h: 880 ng·h/mL
[8]
  Cmax: 380 ng/mL
[9]
  Activity: Non-toxic
[10]
  Activity: Non-toxic
SW-620
  viability at 2 µM: 95.9%
[11]
  Activity: Active
hERG (KCNH2)
  inhibition at 40 µM: 32%
KB 3-1 [12]
  viability at 5 µM: 95.9%
KB-C2
  Ratio IC50: 106.85
SW620/AD300 [13]
  Ratio IC50: 168.91
HEK293 [14]
  viability at 5 µM: 94.3%
[15]
  Activity: Non-toxic
[16]
  Activity: Non-toxic
[17]
  Cmax: 504 ng/mL
KB 3-1 [18]
  viability at 2 µM: 99.6%
[19]
  inhibition (INH): Dose-dependent-effect
SW620/AD300 [20]
  Activity: Active
[21]
  MRT inf: 7.24 h
[22]
  Ratio IC50: 7.82
CT26/TAXOL [23]
  Activity: Active
[24]
  bioavailability: 63.9%
[25]
  Activity: Non-toxic
SW620/AD300 [26]
  viability at 2 µM: 98.5%
[27]
  Activity: Non-toxic
CT26/TAXOL [28]
  Activity: Not active; Compound Showed Negligible Effect
